The source of these data is PubChem BioAssay AID1259407 (Chemical Carcinogenesis Research Information System (CCRIS), 2018).

Each structure is given as a SMILES string. Calls of active or inactive are those of the source. How the calls were made is not given here.

In this data set the test system is CCRIS mutagenicity, Ames/micronucleus/aberration tests. Description: CCRIS mutagenicity studies.
[1] abbreviates: Test System: AMES SALMONELLA TYPHIMURIUM, Strain/Indicator: TA98, Metabolic Activation: NONE, Method: PREINCUBATION
[2] abbreviates: Test System: AMES SALMONELLA TYPHIMURIUM, Strain/Indicator: TA98, Metabolic Activation: NONE, Method: STANDARD PLATE.
Setting [3] is: Test System: AMES SALMONELLA TYPHIMURIUM, Strain/Indicator: TA98, Metabolic Activation: RAT, LIVER, S-9, AROCLOR 1254, Method: STANDARD PLATE.
Where [4] appears, read: Test System: AMES SALMONELLA TYPHIMURIUM, Strain/Indicator: TA100, Metabolic Activation: NONE, Method: STANDARD PLATE.
Setting [5] is: Test System: AMES SALMONELLA TYPHIMURIUM, Strain/Indicator: TA100, Metabolic Activation: RAT, LIVER, S-9, AROCLOR 1254, Method: STANDARD PLATE.

Take `Fc1c(F)c(F)c(Cl)c(F)c1F`: the mutagenic call reads like this: under setting [1], “inactive; negative”; under setting [2], “inactive; negative”; (Test System: AMES SALMONELLA TYPHIMURIUM, Strain/Indicator: TA98, Metabolic Activation: RAT, LIVER, S-9, AROCLOR 1254, Method: PREINCUBATION) “inactive; negative”; under setting [3], “inactive; negative”; (Test System: AMES SALMONELLA TYPHIMURIUM, Strain/Indicator: TA100, Metabolic Activation: NONE, Method: PREINCUBATION) “inactive; negative”; under setting [4], “inactive; negative”. Moreover, the mutagenic call (Test System: AMES SALMONELLA TYPHIMURIUM, Strain/Indicator: TA100, Metabolic Activation: RAT, LIVER, S-9, AROCLOR 1254, Method: PREINCUBATION) is “inactive; negative”; the mutagenic call under setting [5] is “inactive; negative”; the mutagenic call (Test System: AMES SALMONELLA TYPHIMURIUM, Strain/Indicator: TA1535, Metabolic Activation: NONE, Method: PREINCUBATION) was “inactive; negative”; the mutagenic call (Test System: AMES SALMONELLA TYPHIMURIUM, Strain/Indicator: TA1535, Metabolic Activation: NONE, Method: STANDARD PLATE) was “inactive; negative”; the mutagenic call (Test System: AMES SALMONELLA TYPHIMURIUM, Strain/Indicator: TA1535, Metabolic Activation: RAT, LIVER, S-9, AROCLOR 1254, Method: PREINCUBATION) was “inactive; negative”; the mutagenic call (Test System: AMES SALMONELLA TYPHIMURIUM, Strain/Indicator: TA1535, Metabolic Activation: RAT, LIVER, S-9, AROCLOR 1254, Method: STANDARD PLATE) is “inactive; negative”. Also, the mutagenic call by setting is: (Test System: AMES SALMONELLA TYPHIMURIUM, Strain/Indicator: TA1537, Metabolic Activation: NONE, Method: PREINCUBATION) “inactive; negative”; (Test System: AMES SALMONELLA TYPHIMURIUM, Strain/Indicator: TA1537, Metabolic Activation: NONE, Method: STANDARD PLATE) “inactive; negative”; (Test System: AMES SALMONELLA TYPHIMURIUM, Strain/Indicator: TA1537, Metabolic Activation: RAT, LIVER, S-9, AROCLOR 1254, Method: PREINCUBATION) “inactive; negative”; (Test System: AMES SALMONELLA TYPHIMURIUM, Strain/Indicator: TA1537, Metabolic Activation: RAT, LIVER, S-9, AROCLOR 1254, Method: STANDARD PLATE) “inactive; negative”; (Test System: AMES SALMONELLA TYPHIMURIUM, Strain/Indicator: TA1538, Metabolic Activation: NONE, Method: PREINCUBATION) “inactive; negative”; (Test System: AMES SALMONELLA TYPHIMURIUM, Strain/Indicator: TA1538, Metabolic Activation: NONE, Method: STANDARD PLATE) “inactive; negative”. In addition, the mutagenic call was “inactive; negative” (Test System: AMES SALMONELLA TYPHIMURIUM, Strain/Indicator: TA1538, Metabolic Activation: RAT, LIVER, S-9, AROCLOR 1254, Method: PREINCUBATION); “inactive; negative” (Test System: AMES SALMONELLA TYPHIMURIUM, Strain/Indicator: TA1538, Metabolic Activation: RAT, LIVER, S-9, AROCLOR 1254, Method: STANDARD PLATE); “inactive; negative” (Test System: CHINESE HAMSTER OVARY, Strain/Indicator: CHO (HGPRT), Metabolic Activation: NONE); “inactive; negative” (Test System: CHINESE HAMSTER OVARY, Strain/Indicator: CHO (HGPRT), Metabolic Activation: RAT, LIVER, S-9, AROCLOR 1254); “inactive; negative” (Test System: CHINESE HAMSTER OVARY, Strain/Indicator: CHO-K1-BH4 (HGPRT)/6-THIOGUANINE, Metabolic Activation: NONE, Method: SUSPENSION/PLATE); “inactive; negative” (Test System: CHINESE HAMSTER OVARY, Strain/Indicator: CHO-K1-BH4 (HGPRT)/6-THIOGUANINE, Metabolic Activation: RAT, LIVER, S-9, AROCLOR 1254, Method: SUSPENSION/PLATE). Also, the mutagenic call reads like this: (Test System: CHO/HGPRT, Strain/Indicator: CHO-K1-BH4, Metabolic Activation: NONE, Method: SUSPENSION/PLATE) “inactive; negative”; (Test System: CHO/HGPRT, Strain/Indicator: CHO-K1-BH4, Metabolic Activation: RAT, LIVER, S-9, AROCLOR 1254, Method: SUSPENSION/PLATE) “inactive; negative”; (Test System: UDS RAT PRIMARY HEPATOCYTES, Strain/Indicator: THY INCORP, Metabolic Activation: NONE, Method: IN VIVO-IN VITRO) “inactive; negative”; (Test System: UDS RODENT HEPATOCYTES, Strain/Indicator: THY INCORP (NON-S-PHASE), Metabolic Activation: NONE) “inactive; negative”.

Consider `Cc1c2ccccc2c(COS(=O)(=O)O)c2ccc3ccccc3c12`, for which, under setting [1], the mutagenic call was “active; positive”.

Regarding `Cc1ncc(CO)c(CO)c1O`, the mutagenic call is “inactive; negative” (Test System: AMES SALMONELLA TYPHIMURIUM, Strain/Indicator: TA97A, Metabolic Activation: NONE, Method: PREINCUBATION); “inactive; negative” (Test System: AMES SALMONELLA TYPHIMURIUM, Strain/Indicator: TA97A, Metabolic Activation: RAT, LIVER, S-9, AROCLOR 1254, Method: PREINCUBATION); “inactive; negative” (Test System: AMES SALMONELLA TYPHIMURIUM, Strain/Indicator: TA102, Metabolic Activation: NONE, Method: PREINCUBATION); “inactive; negative” (Test System: AMES SALMONELLA TYPHIMURIUM, Strain/Indicator: TA102, Metabolic Activation: RAT, LIVER, S-9, AROCLOR 1254, Method: PREINCUBATION).

With `[Cl][Rh-2]([Cl])([Cl])([Cl])[Cl]`, the mutagenic call by setting is: (Test System: AMES SALMONELLA TYPHIMURIUM, Strain/Indicator: TA97A, Metabolic Activation: NONE, Method: STANDARD PLATE) “inactive; negative”; (Test System: AMES SALMONELLA TYPHIMURIUM, Strain/Indicator: TA97A, Metabolic Activation: RAT, LIVER, S-9, PHENOBARBITAL AND 5,6-BENZOFLAVONE, Method: STANDARD PLATE) “active; positive”; (Test System: AMES SALMONELLA TYPHIMURIUM, Strain/Indicator: TA97A, Metabolic Activation: RAT, LIVER, S-9, PHENOBARBITAL AND BETA-NAPHTHOFLAVONE, Method: STANDARD PLATE) “active; positive”; under setting [2], “active; positive”; (Test System: AMES SALMONELLA TYPHIMURIUM, Strain/Indicator: TA98, Metabolic Activation: RAT, LIVER, S-9, PHENOBARBITAL AND 5,6-BENZOFLAVONE, Method: STANDARD PLATE) “active; positive”; (Test System: AMES SALMONELLA TYPHIMURIUM, Strain/Indicator: TA98, Metabolic Activation: RAT, LIVER, S-9, PHENOBARBITAL AND BETA-NAPHTHOFLAVONE, Method: STANDARD PLATE) “active; positive”. Besides, the mutagenic call is “inactive; negative” under setting [4]; “active; positive” (Test System: AMES SALMONELLA TYPHIMURIUM, Strain/Indicator: TA100, Metabolic Activation: RAT, LIVER, S-9, PHENOBARBITAL AND 5,6-BENZOFLAVONE, Method: STANDARD PLATE); “active; positive” (Test System: AMES SALMONELLA TYPHIMURIUM, Strain/Indicator: TA100, Metabolic Activation: RAT, LIVER, S-9, PHENOBARBITAL AND BETA-NAPHTHOFLAVONE, Method: STANDARD PLATE); “active; positive” (Test System: AMES SALMONELLA TYPHIMURIUM, Strain/Indicator: TA102, Metabolic Activation: NONE, Method: STANDARD PLATE); “active; positive” (Test System: AMES SALMONELLA TYPHIMURIUM, Strain/Indicator: TA102, Metabolic Activation: RAT, LIVER, S-9, PHENOBARBITAL AND 5,6-BENZOFLAVONE, Method: STANDARD PLATE); “active; positive” (Test System: AMES SALMONELLA TYPHIMURIUM, Strain/Indicator: TA102, Metabolic Activation: RAT, LIVER, S-9, PHENOBARBITAL AND BETA-NAPHTHOFLAVONE, Method: STANDARD PLATE).

For `Clc1c2ccccc2cc2c1ccc1ccccc12`, the mutagenic call was “active; positive” under setting [3]; “active; positive” under setting [5]; “active; positive” (Test System: AMES SALMONELLA TYPHIMURIUM, Strain/Indicator: TA100, Metabolic Activation: RAT, LIVER, S-9, PCB, Method: STANDARD PLATE).
